Results as given in US20230271950A1, “ANTIBACTERIAL PICOLINAMIDE COMPOUNDS” (University of Notre Dame Du Lac, priority 2020, published 2023).
≈ marks a conversion by molar mass, not a printed value. Like-named read-outs stand apart in the source and are kept apart here.

Columns and labels:
Lactobacillus gasseri = test: MIC against gut bacterium Lactobacillus gasseri; assay type: cell-based
Fusobacterium nucleatum = test: MIC against gut bacterium Fusobacterium nucleatum; assay type: cell-based; details: Fusobacterium nucleatum, Fusobacterium nucleatum strain HM-992, read-out: MIC
[1] = system: Fecal microbiota preparation; test: MIC against fecal microbiota preparation; assay type: cell-based; details: Fecal microbiota preparation from OpenBiome tested at 1000-fold dilution
Experimental: Minimum inhibitory concentrations (MIC). MICs for C. difficile strains and the common gut bacteria were determined using broth microdilution techniques as reported earlier using brucella broth supplemented with hemin and vitamin K or supplemented BHIS broth. Lactobacillus MRS broth was used for lactobacillus strains. Sodium lactate was supplemented in the media for Veillonella sp. […] All incubations, unless specified otherwise, were carried out at 24 h or 48 h at 37° C. in an anaerobic chamber (Whitley DG250 workstation, Microbiology International, Frederick, Md.). Corynebacterium and Lactobacillus species were incubated aerobically.

Bacteroides fragilis = test: MIC against gut bacterium Bacteroides fragilis; assay type: cell-based; details: Bacteroides fragilis, Bacteroides fragilis strain HM-709, read-out: MIC
Eubacterium sp. = test: MIC against gut bacterium Eubacterium sp.; assay type: cell-based; details: Eubacterium, Eubacterium sp. strain HM-178, read-out: MIC
Lactobacillus reuteri = test: MIC against gut bacterium Lactobacillus reuteri; assay type: cell-based
S. aureus ATCC29213 = test: MIC against MSSA; assay type: cell-based, Staphylococcus aureus; details: Staphylococcus aureus; S. aureus ATCC29213; Table 1; read-out: MIC
MRSA (NRS70, NRS119) = test: MIC against MRSA strains; assay type: cell-based, Staphylococcus aureus; details: Staphylococcus aureus, read-out: MIC
C. difficile = test: MIC by broth microdilution against C. difficile strains; assay type: cell-based, Clostridioides difficile; details: Clostridioides difficile, read-out: MIC

MIC (Lactobacillus gasseri; Lactobacillus gasseri strain HM-644, Table 7): >32 µg/mL
MIC (Lactobacillus gasseri; Lactobacillus gasseri, Lactobacillus gasser strain HM-644, Table 1, read-out: MIC): > 32 µg/mL
MIC (Fusobacterium nucleatum; Table 1): 2 µg/mL (≈ 11.7 µM)
MIC (Fusobacterium nucleatum; Table 7): 2 µg/mL (≈ 11.7 µM)
MIC [1]: > 128 µg/mL
MIC (Bacteroides fragilis; Table 1): 0.5 µg/mL (≈ 2.92 µM)
MIC (Bacteroides fragilis; Table 7): 1 µg/mL (≈ 5.84 µM)
MIC (Eubacterium sp.; Table 1): 1 µg/mL (≈ 5.84 µM)
MIC (Eubacterium sp.; Table 7): 1 µg/mL (≈ 5.84 µM)
MIC (Lactobacillus reuteri; Lactobacillus reuteri strain HM-102, Table 7): >32 µg/mL
MIC (Lactobacillus reuteri; Limosilactobacillus reuteri, Lactobacillus reuter strain HM-102, Table 1, read-out: MIC): > 32 µg/mL
MIC (S. aureus ATCC29213): > 128 µg/mL
MIC (MRSA (NRS70, NRS119); MRSA NRS70, Table 1): > 128 µg/mL
MIC (MRSA (NRS70, NRS119); MRSA NRS70, Table 7): > 128 µg/mL
MIC (MRSA (NRS70, NRS119); MRSA NRS119, Table 1): > 128 µg/mL
MIC (C. difficile; ATCC43255, C. difficile ATCC43255 (TcdA+, TcdB+), Table 1): 0.25 µg/mL (≈ 1.46 µM)
MIC (C. difficile; ATCC43255, C. difficile ATCC43255, Table 7): 0.25 µg/mL (≈ 1.46 µM)
MIC (C. difficile; ATCC43255, C. difficile ATCC43255, Table 9): 0.25 µg/mL (≈ 1.46 µM)
MIC (C. difficile; BAA1803, C. difficile BAA-1803, Table 7): 0.5 µg/mL (≈ 2.92 µM)
MIC (C. difficile; BAA1803, C. difficile BAA-1803, Table 9): 0.5 µg/mL (≈ 2.92 µM)
MIC (C. difficile; BAA1804, C. difficile BAA-1804, Table 7): 0.25 µg/mL (≈ 1.46 µM)
MIC (C. difficile; BAA1804, C. difficile BAA-1804, Table 9): 0.25 µg/mL (≈ 1.46 µM)
MIC (C. difficile; BAA1812, C. difficile BAA-1812, Table 7): 0.25 µg/mL (≈ 1.46 µM)
MIC (C. difficile; BAA1812, C. difficile BAA-1812, Table 9): 0.25 µg/mL (≈ 1.46 µM)
MIC (C. difficile; BAA1814, C. difficile BAA-1814, Table 7): 0.25 µg/mL (≈ 1.46 µM)
MIC (C. difficile; BAA1814, C. difficile BAA-1814, Table 9): 0.25 µg/mL (≈ 1.46 µM)
MIC (C. difficile; BAA1870, C. difficile BAA-1870 (NAP1, ribotype 27), Table 1): 0.5 µg/mL (≈ 2.92 µM)
MIC (C. difficile; BAA1870, C. difficile BAA-1870, Table 7): 0.5 µg/mL (≈ 2.92 µM)
MIC (C. difficile; BAA1870, C. difficile BAA-1870, Table 9): 0.5 µg/mL (≈ 2.92 µM)
MIC (C. difficile; C. difficile 23691 (VR, vancomycin-resistant), Table 7): 0.5 µg/mL (≈ 2.92 µM)
MIC (C. difficile; C. difficile 23691, clinical isolate resistant to VAN, Table 1): 0.5 µg/mL (≈ 2.92 µM)
MIC (C. difficile; C. difficile 23691, Table 9): 0.5 µg/mL (≈ 2.92 µM)
MIC (C. difficile; C. difficile 23828 (FR, fidaxomicin-resistant), Table 7): 0.5 µg/mL (≈ 2.92 µM)
MIC (C. difficile; C. difficile 23828, clinical isolate resistant to FDX, Table 1): 0.5 µg/mL (≈ 2.92 µM)
MIC (C. difficile; C. difficile 23828, Table 9): 0.5 µg/mL (≈ 2.92 µM)
MIC (C. difficile; C. difficile 24531 (VR, vancomycin-resistant), Table 7): 0.5 µg/mL (≈ 2.92 µM)
MIC (C. difficile; C. difficile 24531, Table 9): 0.5 µg/mL (≈ 2.92 µM)
MIC (C. difficile; C. difficile 24923 (VR, vancomycin-resistant), Table 7): 0.25 µg/mL (≈ 1.46 µM)
MIC (C. difficile; C. difficile 24923, Table 9): 0.25 µg/mL (≈ 1.46 µM)
MIC (C. difficile; C. difficile 26675 (MR, metronidazole-resistant), Table 7): 4 µg/mL (≈ 23.4 µM)
MIC (C. difficile; C. difficile 26675, clinical isolate resistant to MTZ, Table 1): 4 µg/mL (≈ 23.4 µM)
MIC (C. difficile; C. difficile 26675, Table 9): 4 µg/mL (≈ 23.4 µM)
MIC (C. difficile; C. difficile 27081 (FR, fidaxomicin-resistant), Table 7): 0.5 µg/mL (≈ 2.92 µM)
MIC (C. difficile; C. difficile 27081, Table 9): 0.5 µg/mL (≈ 2.92 µM)
MIC (C. difficile; C. difficile 27173 (MR, metronidazole-resistant), Table 7): 4 µg/mL (≈ 23.4 µM)
MIC (C. difficile; C. difficile 27173, Table 9): 4 µg/mL (≈ 23.4 µM)
MIC (C. difficile; C. difficile HM-88, Table 9): 0.25 µg/mL (≈ 1.46 µM)
MIC (C. difficile; C. difficile HM-89, Table 9): 0.25 µg/mL (≈ 1.46 µM)
MIC (C. difficile; C. difficile HM-745, Table 9): 0.5 µg/mL (≈ 2.92 µM)
MIC (C. difficile; C. difficile HM-746, Table 9): 0.25 µg/mL (≈ 1.46 µM)
MIC (C. difficile; C. difficile HM-747, Table 9): 0.5 µg/mL (≈ 2.92 µM)
MIC (C. difficile; C. difficile NR49292, Table 7): 0.25 µg/mL (≈ 1.46 µM)
MIC (C. difficile; C. difficile NR49292, Table 9): 0.25 µg/mL (≈ 1.46 µM)
MIC (C. difficile; C. difficile NR49294, Table 7): 0.25 µg/mL (≈ 1.46 µM)
MIC (C. difficile; C. difficile NR49294, Table 9): 0.25 µg/mL (≈ 1.46 µM)
MIC (C. difficile; C. difficile NR49305, Table 7): 0.25 µg/mL (≈ 1.46 µM)
MIC (C. difficile; C. difficile NR49305, Table 9): 0.25 µg/mL (≈ 1.46 µM)
MIC (C. difficile; C. difficile NR49318, Table 7): 0.25 µg/mL (≈ 1.46 µM)
MIC (C. difficile; C. difficile NR49318, Table 9): 0.25 µg/mL (≈ 1.46 µM)
MIC (C. difficile; C. difficile NR-13427, Table 9): 1 µg/mL (≈ 5.84 µM)
MIC (C. difficile; C. difficile NR-13428, Table 9): 1 µg/mL (≈ 5.84 µM)
MIC (C. difficile; C. difficile NR-13429, Table 9): 1 µg/mL (≈ 5.84 µM)
MIC (C. difficile; C. difficile NR-13430, Table 9): 0.5 µg/mL (≈ 2.92 µM)
MIC (C. difficile; C. difficile NR-13431, Table 9): 0.5 µg/mL (≈ 2.92 µM)
MIC (C. difficile; C. difficile NR-13433, Table 9): 0.5 µg/mL (≈ 2.92 µM)
MIC (C. difficile; C. difficile NR-13434, Table 9): 0.5 µg/mL (≈ 2.92 µM)
MIC (C. difficile; C. difficile NR-13435, Table 9): 0.5 µg/mL (≈ 2.92 µM)
MIC (C. difficile; C. difficile NR-13436, Table 9): 0.5 µg/mL (≈ 2.92 µM)
MIC (C. difficile; C. difficile NR-13437, Table 9): 0.5 µg/mL (≈ 2.92 µM)
MIC (C. difficile; C. difficile NR-13438, Table 9): 0.5 µg/mL (≈ 2.92 µM)
MIC (C. difficile; C. difficile NR-13553, Table 9): 0.5 µg/mL (≈ 2.92 µM)
SMILES: Cc1ncc([N+](=O)[O-])n1CCO [MTZ, metronidazole, reference compound]
